Test results: US20210300936A1, “PYRAZOLOTRIAZOLOPYRIMIDINE DERIVATIVES AS A2A RECEPTOR ANTAGONIST” (BEIGENE, LTD., priority 2018, published 2021)

The compounds below were run against human A2A receptor (A2AR) (Homo sapiens, UniProt P29274) (assay: Luciferase reporter assay (HEK293-A2AR-luc2p/CRE/Hygro cells, 3 nM CGS21680)). Conditions: 3 nM CGS21680, 5 h incubation.
Type: cell-based
Outline: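 HEK293 cells stably expressing A2AR with a CRE-luc2P reporter were seeded in 1% FBS with 1 U/mL adenosine deaminase. After 18 h, cells got 3 nM CGS21680 plus antagonist at 0.1–10000 nM for 5 h, followed by a luciferase readout. IC50 is relative to the 3 nM CGS21680 signal, set as 100%.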

Sequence of human A2A receptor (A2AR) (P29274 whole entry): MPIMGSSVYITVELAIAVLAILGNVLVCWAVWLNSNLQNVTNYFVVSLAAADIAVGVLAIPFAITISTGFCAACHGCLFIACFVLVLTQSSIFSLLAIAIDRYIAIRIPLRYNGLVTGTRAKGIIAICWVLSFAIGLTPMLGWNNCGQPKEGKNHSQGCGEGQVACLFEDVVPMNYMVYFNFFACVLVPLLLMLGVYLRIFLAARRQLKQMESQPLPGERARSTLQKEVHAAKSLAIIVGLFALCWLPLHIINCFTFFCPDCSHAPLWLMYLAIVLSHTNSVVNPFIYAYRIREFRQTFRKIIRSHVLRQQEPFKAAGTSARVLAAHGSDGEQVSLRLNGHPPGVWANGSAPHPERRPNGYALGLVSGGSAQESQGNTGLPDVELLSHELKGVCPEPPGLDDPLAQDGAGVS

`COCCOc1ccc(N2CCN(C(=O)C(C)(c3ccccc3F)n3ncc4c3nc(N)n3nc(-c5ccco5)nc43)CC2)cc1` (stereo not shown) [Compound A87, 2-(5-amino-2-(furan-2-yl)-7H-pyrazolo[4,3-e][1,2,4]triazolo[1,5-c]pyrimidin-7-yl)-2-(2-fluorophenyl)-1-(4-(4-(2-methoxyethoxy)phenyl)piperazin-1-yl)propan-1-one] and `COCCOc1ccc(N2CCN(C(=O)C(C)(c3ccccc3C)n3ncc4c3nc(N)n3nc(-c5ccco5)nc43)CC2)cc1` (stereo not shown) [Compound A103, 2-(5-amino-2-(furan-2-yl)-7H-pyrazolo[4,3-e][1,2,4]triazolo[1,5-c]pyrimidin-7-yl)-1-(4-(4-(2-methoxyethoxy)phenyl)piperazin-1-yl)-2-(o-tolyl)propan-1-one] are within 1.5-fold of each other in IC50: 2 nM for the first, 1.7 nM for the second.

`CN(C)C(=O)c1cccc(N2CCN(C(=O)C(C)(c3ccccc3)n3ncc4c3nc(N)n3nc(-c5ccco5)nc43)CC2)c1` (stereo not shown) [Compound A88, 3-(4-(2-(5-amino-2-(furan-2-yl)-7H-pyrazolo[4,3-e][1,2,4]triazolo[1,5-c]pyrimidin-7-yl)-2-phenylpropanoyl)piperazin-1-yl)-N,N-dimethylbenzamide] and `CN(C)C(=O)c1ccc(N2CCN(C(=O)C(C)(c3ccccc3)n3ncc4c3nc(N)n3nc(-c5ccco5)nc43)CC2)cc1` (stereo not shown) [Compound A104, 4-(4-(2-(5-amino-2-(furan-2-yl)-7H-pyrazolo[4,3-e][1,2,4]triazolo[1,5-c]pyrimidin-7-yl)-2-phenylpropanoyl)piperazin-1-yl)-N,N-dimethylbenzamide] are within 1.5-fold of each other in IC50: 7 nM for the first, 5.5 nM for the second.

Compared with `CC(C(=O)N1CCN(c2cccc(C(=O)N3CCCCC3)c2)CC1)(c1ccccc1)n1ncc2c1nc(N)n1nc(-c3ccco3)nc21` (stereo not shown) [Compound A89, 2-(5-amino-2-(furan-2-yl)-7H-pyrazolo[4,3-e][1,2,4]triazolo[1,5-c]pyrimidin-7-yl)-2-phenyl-1-(4-(3-(piperidine-1-carbonyl)phenyl)piperazin-1-yl)propan-1-one], `CC(C(=O)N1CCN(c2ccc(C(=O)N3CCCCC3)cc2)CC1)(c1ccccc1)n1ncc2c1nc(N)n1nc(-c3ccco3)nc21` (stereo not shown) [Compound A102, 2-(5-amino-2-(furan-2-yl)-7H-pyrazolo[4,3-e][1,2,4]triazolo[1,5-c]pyrimidin-7-yl)-2-phenyl-1-(4-(4-(piperidine-1-carbonyl)phenyl)piperazin-1-yl)propan-1-one] is 1.5-fold lower in IC50: 13.8 nM for the first, 9.2 nM for the second. The second is the more potent here.

Going from `CC(C(=O)N1CCN(c2cccc(C(=O)NC3CCCCC3)c2)CC1)(c1ccccc1)n1ncc2c1nc(N)n1nc(-c3ccco3)nc21` (stereo not shown) [Compound A90, 2-(5-amino-2-(furan-2-yl)-7H-pyrazolo[4,3-e][1,2,4]triazolo[1,5-c]pyrimidin-7-yl)-2-phenyl-1-(4-(3-(cyclohexanaminocarbonyl)phenyl)piperazin-1-yl)propan-1-one] to `CC(C(=O)N1CCN(c2ccc(C(=O)NC3CCCCC3)cc2)CC1)(c1ccccc1)n1ncc2c1nc(N)n1nc(-c3ccco3)nc21` (stereo not shown) [Compound A98, 4-(4-(2-(5-amino-2-(furan-2-yl)-7H-pyrazolo[4,3-e][1,2,4]triazolo[1,5-c]pyrimidin-7-yl)-2-phenylpropanoyl)piperazin-1-yl)-N-cyclohexylbenzamide], the IC50 falls from 14.1 nM to 7.2 nM (2-fold). The second is the more potent here.

First: CC(C(=O)N1CCN(c2cccc(C(=O)NCC3(O)COC3)c2)CC1)(c1ccccc1)n1ncc2c1nc(N)n1nc(-c3ccco3)nc21 (stereo not shown) [Compound A91, 3-(4-(2-(5-amino-2-(furan-2-yl)-7H-pyrazolo[4,3-e][1,2,4]triazolo[1,5-c]pyrimidin-7-yl)-2-phenylpropanoyl)piperazin-1-yl)-N-((3-hydroxyoxetan-3-yl)methyl)benzamide]
Second: CC(C(=O)N1CCN(c2ccccc2C(=O)NCC2(O)COC2)CC1)(c1ccccc1)n1ncc2c1nc(N)n1nc(-c3ccco3)nc21 (stereo not shown) [Compound A100, 2-(4-(2-(5-amino-2-(furan-2-yl)-7H-pyrazolo[4,3-e][1,2,4]triazolo[1,5-c]pyrimidin-7-yl)-2-phenylpropanoyl)piperazin-1-yl)-N-((3-hydroxyoxetan-3-yl)methyl)benzamide]
The IC50 of the first is 7.6-fold lower: 3.3 nM for the first, 25 nM for the second. The first is the more potent here.

`CNC(=O)c1ccc(N2CCN(C(=O)C(C)(c3ccccc3)n3ncc4c3nc(N)n3nc(-c5ccco5)nc43)CC2)cc1` (stereo not shown) [Compound A92, 4-(4-(2-(5-amino-2-(furan-2-yl)-7H-pyrazolo[4,3-e][1,2,4]triazolo[1,5-c]pyrimidin-7-yl)-2-phenylpropanoyl)piperazin-1-yl)-N-methylbenzamide] and `CC(C(=O)N1CCN(c2ccc(OCCO)cc2)CC1)(c1ccccc1)n1ncc2c1nc(N)n1nc(-c3ccco3)nc21` (stereo not shown) [Compound A108, 2-(5-amino-2-(furan-2-yl)-7H-pyrazolo[4,3-e][1,2,4]triazolo[1,5-c]pyrimidin-7-yl)-1-(4-(4-(2-hydroxyethoxy)phenyl)piperazin-1-yl)-2-phenylpropan-1-one] are within 1.5-fold of each other in IC50: 2.7 nM for the first, 3.5 nM for the second.

First: COCCOc1ccc(N2CCN(C(=O)C(C)(c3ccccc3OC)n3ncc4c3nc(N)n3nc(-c5ccco5)nc43)CC2)cc1 (stereo not shown) [Compound A93, 2-(5-amino-2-(furan-2-yl)-7H-pyrazolo[4,3-e][1,2,4]triazolo[1,5-c]pyrimidin-7-yl)-1-(4-(4-(2-methoxyethoxy)phenyl)piperazin-1-yl)-2-(2-methoxyphenyl)propan-1-one]
Second: COCCOc1ccc(N2CCN(C(=O)C(C)(c3ccccc3)n3ncc4c3nc(N)n3nc(-c5ccco5)nc43)CC2)c(OC)c1 (stereo not shown) [Compound A106, 2-(5-amino-2-(furan-2-yl)-7H-pyrazolo[4,3-e][1,2,4]triazolo[1,5-c]pyrimidin-7-yl)-1-(4-(2-methoxy-4-(2-methoxyethoxy)phenyl)piperazin-1-yl)-2-phenylpropan-1-one]
The IC50 of the first is 14-fold lower: 0.6 nM for the first, 8.5 nM for the second. The first is the more potent here.

First: CC(C(=O)N1CCN(c2ccccc2C(=O)NC2CCCCC2)CC1)(c1ccccc1)n1ncc2c1nc(N)n1nc(-c3ccco3)nc21 (stereo not shown) [Compound A94, 2-(4-(2-(5-amino-2-(furan-2-yl)-7H-pyrazolo[4,3-e][1,2,4]triazolo[1,5-c]pyrimidin-7-yl)-2-phenylpropanoyl)piperazin-1-yl)-N-cyclohexylbenzamide]
Second: CC(C(=O)N1CCN(c2ccccc2C(=O)N2CCCCC2)CC1)(c1ccccc1)n1ncc2c1nc(N)n1nc(-c3ccco3)nc21 (stereo not shown) [Compound A99, 2-(5-amino-2-(furan-2-yl)-7H-pyrazolo[4,3-e][1,2,4]triazolo[1,5-c]pyrimidin-7-yl)-2-phenyl-1-(4-(2-(piperidine-1-carbonyl)phenyl)piperazin-1-yl)propan-1-one]
The IC50 of the first is 7.5-fold lower: 3.8 nM for the first, 28.6 nM for the second. The first is the more potent here.

Going from `COCCOc1ccc(N2CCN(C(=O)C(C)(c3ccccc3)n3ncc4c3nc(N)n3nc(-c5nccnc5C)nc43)CC2)cc1` (stereo not shown) [Compound A95, 2-(5-amino-2-(3-methylpyrazin-2-yl)-7H-pyrazolo[4,3-e][1,2,4]triazolo[1,5-c]pyrimidin-7-yl)-1-(4-(4-(2-methoxyethoxy)phenyl)piperazin-1-yl)-2-phenylpropan-1-one] to `CNCCOc1ccc(N2CCN(C(=O)C(C)(c3ccccc3)n3ncc4c3nc(N)n3nc(-c5ccco5)nc43)CC2)cc1` (stereo not shown) [Compound A107, 2-(5-amino-2-(furan-2-yl)-7H-pyrazolo[4,3-e][1,2,4]triazolo[1,5-c]pyrimidin-7-yl)-1-(4-(4-(2-(methylamino)ethoxy)phenyl)piperazin-1-yl)-2-phenylpropan-1-one], the IC50 falls from 31.1 nM to 4.8 nM (6.5-fold).

`CN(C)C(=O)c1ccccc1N1CCN(C(=O)C(C)(c2ccccc2)n2ncc3c2nc(N)n2nc(-c4ccco4)nc32)CC1` (stereo not shown) [Compound A96, 2-(4-(2-(5-amino-2-(furan-2-yl)-7H-pyrazolo[4,3-e][1,2,4]triazolo[1,5-c]pyrimidin-7-yl)-2-phenylpropanoyl)piperazin-1-yl)-N,N-dimethylbenzamide] and `COc1ccc(N2CCN(C(=O)C(C)(c3ccccc3)n3ncc4c3nc(N)n3nc(-c5ccco5)nc43)CC2)c(OC)c1` (stereo not shown) [Compound A105, 2-(5-amino-2-(furan-2-yl)-7H-pyrazolo[4,3-e][1,2,4]triazolo[1,5-c]pyrimidin-7-yl)-1-(4-(2,4-dimethoxyphenyl)piperazin-1-yl)-2-phenylpropan-1-one] are within 1.5-fold of each other in IC50: 13.7 nM for the first, 10.3 nM for the second.

First: COCCOc1ccc(N2CCN(C(=O)C(C)(Cc3ccccc3)n3ncc4c3nc(N)n3nc(-c5ccco5)nc43)CC2)cc1 (stereo not shown) [Compound A97, 2-(5-amino-2-(furan-2-yl)-7H-pyrazolo[4,3-e][1,2,4]triazolo[1,5-c]pyrimidin-7-yl)-1-(4-(4-(2-methoxyethoxy)phenyl)piperazin-1-yl)-2-methyl-3-phenylpropan-1-one]
Second: CC(C(=O)N1CCN(c2ccc(OCCN3CCCC3)cc2)CC1)(c1ccccc1)n1ncc2c1nc(N)n1nc(-c3ccco3)nc21 (stereo not shown) [Compound A101, 2-(5-amino-2-(furan-2-yl)-7H-pyrazolo[4,3-e][1,2,4]triazolo[1,5-c]pyrimidin-7-yl)-2-phenyl-1-(4-(4-(2-(pyrrolidin-1-yl)ethoxy)phenyl)piperazin-1-yl)propan-1-one]
The IC50 of the first is 86-fold higher: 335 nM for the first, 3.9 nM for the second. The second is the more potent here.

Going from `CN(C)C(=O)C(c1ccccc1)n1ncc2c1nc(N)n1nc(-c3ccco3)nc21` (stereo not shown) [Compound B1, 2-(5-amino-2-(furan-2-yl)-7H-pyrazolo[4,3-e][1,2,4]triazolo[1,5-c]pyrimidin-7-yl)-N,N-dimethyl-2-phenylacetamide] to `Nc1nc2c(cnn2C(C(=O)N2CCCCC2)c2ccccc2)c2nc(-c3ccco3)nn12` (stereo not shown) [Compound B2, 2-(5-amino-2-(furan-2-yl)-7H-pyrazolo[4,3-e][1,2,4]triazolo[1,5-c]pyrimidin-7-yl)-2-phenyl-1-(piperidin-1-yl)ethan-1-one], the IC50 falls from 15.2 nM to 2.9 nM (5.2-fold). The second is the more potent here.

With `Nc1nc2c(cnn2C(C(=O)N2CCc3ccccc3C2)c2ccccc2)c2nc(-c3ccco3)nn12` (stereo not shown) [Compound B3, 2-(5-amino-2-(furan-2-yl)-7H-pyrazolo[4,3-e][1,2,4]triazolo[1,5-c]pyrimidin-7-yl)-1-(3,4-dihydroisoquinolin-2(1H)-yl)-2-phenylethan-1-one] the IC50 was 1.9 nM.
